Values of other authors as cited in patent US12691099B2, “Oral formulations of Edaravone and method of manufacturing thereof” (BDR PHARMACEUTICALS INTERNATIONAL PRIVATE LIMITED, priority 2019, dated 2026).
In brackets after ≈: the same amount, converted by molar mass.

Assays:
[1] = poor solubility in water and lower lipid permeability

solubility: 25 µg/mL (≈ 144 µM) | BCS class [1]: Class IV
Compound: CC1=NN(c2ccccc2)C(=O)C1 [Edaravone, 3-methyl-1-phenyl-2-pyrazolin-5-one]
